Data: patent publication US20040175763A1, “Crohn's disease antibody-binding peptide and method of examining crohn's disease” (priority 2001, published 2004)
No end group written: not given here.

Key:
[1] = test system: Crohn's disease antibody (serum IgG); experiment: ELISA using each branched multiple antigenic peptide (MAP peptide) as the antigen; assay type: binding, human; conditions: for Positive rate Ulcerative colitis patients: 20 ulcerative colitis patient sera; for Positive rate Ulcerative colitis patients / Positive rate Healthy volunteers: cut-off mean OD+5SD of 48 healthy volunteer sera; for reaction with ulcerative colitis patient sera or healthy volunteer sera: 20 ulcerative colitis, 48 healthy volunteer serum samples; for Positive rate Healthy volunteers: 48 healthy volunteer sera
Protocol: Using each MAP peptide (the MAP peptides of CDP-1, CDP-2, CDP-3, and CDP-4; see FIG. 2) obtained in Example 1 as the antigen peptide, the reactivity to each serum sample (Crohn's disease patient serum, ulcerative colitis patient serum, and healthy volunteer serum) was evaluated by ELISA.
In the first place, each MAP peptide was immobilized on a 96-well microtiter plate. Thus, this immobilization was carried out in accordance with the protocol which comprises dissolving each MAP peptide in bicarbonate buffer (50 mM, pH 9.6) at a concentration of 1 μg/ml to prepare a MAP solution, adding the solution to the antigen plate, 100 μl per well, then leaving the plate sitting at 4° C. overnight, washing it, adding 300 μl of casein solution ((D)-PBS containing 0.1% casein and 1% Triton X-100), and leaving the plate sitting again at 4° C. overnight.
(i) Using the MAP plates carrying the respective MAP peptides immobilized, the reactivity of each MAP peptide to 20 Crohn's disease patient serum samples, 20 ulcerative colitis patient serum samples and 48 healthy volunteer serum samples was verified by ELISA.
More particularly, a primary reaction was carried out by adding mixture containing 1 μl of the serum antibody and 100 μl of casein solution to each well of the MAP plate, and allowing the reaction to proceed at 37° C. for one hour. After completion of the primary reaction, the plate was washed 4 times and a 20,000-fold dilution of HRP-labeled anti-human IgG(Fc)-specific antibody in casein solution was added into the wells and incubated at 37° C. for one hour to carry out a secondary reaction. After completion of the secondary reaction, the plate was washed 4 times and a color development reaction was carried out. For detection, 100 μl of TMB solution was added to the plate and reacted at room temperature for 10 minutes, at the end of which time the reaction was stopped by adding 100 μl of TMB stop solution (1N sulfuric acid). The absorbance at OD 450 nm was measured with a plate reader to investigate the reactivity to each MAP plate for each serum. […] It can also be seen in FIG. 3 that the reactivity of each MAP peptide to Crohn's disease patient serum varied among different kinds of MAP peptides without consistency.
(ii) Then, using a large number of serum samples (96 Crohn's disease patient serum samples, 20 ulcerative colitis patient serum samples, and 48 healthy volunteer serum samples), the reactivity of the above MAP peptides (the MAP peptides of CDP-1, CDP-2, CDP-3, and CDP-4) was investigated by the same method as in (i) to evaluate the specificity of the respective peptides to Crohn's disease patient sera.

[2] = test system: Crohn's disease antibody (serum IgG); experiment: MAP peptide ELISA of CDP-1a, CDP-5a and VATE-201 (Example 4); assay type: binding, human; conditions: 20 Crohn's disease, 20 ulcerative colitis, 20 healthy volunteer serum samples
From the text: Therefore, the following peptides (CDP-1a peptide, CDP-5a peptide, VATE-201 peptide) were respectively synthesized in the MAP form (multiple antigenic peptides) by the same procedure as described in Example 1(3) (FIG. 9), and in accordance with the protocol of Example 2(1), the reactivity of each MAP peptide to various serum samples (Crohn's disease patient sera, ulcerative colitis patient sera and healthy volunteer sera) was investigated by ELISA.
As test sera, 20 Crohn's disease patient serum samples were used and, as control sera, 20 ulcerative colitis serum samples and 20 healthy volunteer serum samples were used.

[3] = test system: Crohn's disease patient serum antibody; experiment: Phage ELISA of CD-binding peptide display phage clones with serum samples; design: species or system human; conditions: 20 Crohn's disease, 20 ulcerative colitis, 20 healthy volunteer serum samples
Protocol: Using the monoclonal CD-binding peptide display phage obtained as above, phage ELISA was carried out with the same healthy volunteer serum pool and Crohn's disease patient serum pool as used in the above biopanning (cf. (i)).
In the ELISA, an anti-phage antibody (Pharmacia) was immobilized on a 96-well microtiter plate in the first place. Specifically, this immobilization was carried out by adding an anti-phage antibody (Pharmacia) solution prepared in a 1 μg/ml concentration with (D)-PBS, to the plate, 100 μl per well. The plate was left sitting at 4° C. overnight and then washed, and after addition of 300 μl of blocking solution ((D)-PBS containing 1% BSA and 5% sorbitol), further left sitting at 4° C. overnight.
The primary reaction was carried out as follows. Thus, 10 μl of the phage solution in (ii) was added to 90 μl of phage ELISA buffer ((D)-PBS containing 1% BSA, 0.05% Tween 20 and 10% normal goat serum), the mixture was added to each well coated with said anti-phage antibody, and the reaction was conducted at 37° C. for 1 hour. After completion of the primary reaction, the plate was washed 4 times and the secondary reaction was carried out. The secondary reaction was performed by adding the mixture containing 1 μl of serum (healthy volunteer serum or Crohn's disease patient serum) and 100 μl of phage ELISA buffer, to each well, and allowing the reaction to proceed at 37° C. for 1 hour. After completion of the secondary reaction, the plate was washed 4 times and the tertiary reaction was carried out. The tertiary reaction was conducted by adding HRP (horseradish peroxidase)-labeled anti-human IgG (Fc)-specific antibody, diluted 40,000-fold in phage ELISA buffer (20 ng/ml) in advance, to the plate, 100 μl per well, and allowing the reaction to proceed at 37° C. for one hour. After completion of the tertiary reaction, the plate was washed and a color development reaction was carried out. The color development was conducted by adding TMB (3,3′,5,5′-tetramethylbenzidine) solution to the plate, allowing the reaction to proceed at room temperature for 10 minutes, and stopping the reaction with a stopper (1N sulfuric acid). The plate after reaction stopping was measured for absorbance (OD 450 nm) with a plate reader to evaluate the reactivity with the serum antibody.
For the 5 clones thus selected, the reactivity (ELISA) with the respective serum samples (Crohn's disease patient serum, ulcerative colitis patient serum, and healthy volunteer serum) was evaluated.

[4] = test system: Crohn's disease antibody (serum antibodies); experiment: MAP antigen-ELISA of TO3965 peptide (Example 7(4)); assay type: binding, human
Protocol: At this junction, in order to endorse the assumption that rice allergen proteins are proteins simulated or mimicked by CDP4 peptide, a peptide (TO3965 peptide) having an amino acid sequence corresponding to the 99-111 amino acid region of Rice seed allergen RA14 (FIG. 16) was prepared in the form of a MAP peptide and the MAP antigen-ELISA was performed using 20 Crohn's disease patient serum samples, 20 ulcerative colitis patient serum samples, and 20 healthy volunteer serum samples.
Except that a MAP antigen plate prepared by immobilizing the MAP peptide of TO3965 on the plate was used as the antigen plate, the MAP antigen-ELISA was carried out in otherwise the same manner as in Example 6(4).

[5] = test system: Crohn's disease antibody; experiment: Reaction inhibition test with one amino acid-substituted MAP peptides on CDP3 MAP plate (Example 6(2)); assay type: binding, human; conditions: inhibitor MAP peptide 100 μg/mL
Protocol: Referring to the amino acid sequence of CDP peptide, in order to determine the sequence necessary for the specific reactivity to Crohn's disease antibody, the following reaction inhibition test was performed using each of the one amino acid-substituted MAP peptides prepared as above as the reaction inhibitor.
More particularly, using the MAP plate prepared by immobilizing the MAP peptide of CDP3 (see Example 2(1)) as the antigen plate, the test was performed by 3 reaction steps. In the primary reaction, the Crohn's disease patient serum was diluted 100-fold with a sample diluent containing the one amino acid-substituted MAP peptide in a concentration of 100 μg/mL (0.1 M Tris-buffer containing 0.5 M sodium chloride, 1.5% casein, 2% normal goat serum and 0.2% Tween 20) and reacted at 25° C. for one hour. In the secondary reaction, 100 μL/well of the primary reaction mixture was added to the plate and reacted at 25° C. for one hour, after which the plate was washed 3 times. In the tertiary reaction, 100 μL/well of HRP-labeled anti-human IgG (Fc)-specific antibody diluted 5,000-fold in an enzyme-labeled antibody diluent (Tris buffer containing 0.14 M sodium chloride, 0.5% BAS, 5% normal goat serum and 0.05% Tween 20) was added to the plate, and reacted at 25° C. for 1 hour, followed by 3 rounds of washing. Detection was performed as in Example 2(1) to measure the reaction-inhibiting activity of the one amino acid-substituted MAP peptide.

[6] = test system: Crohn's disease antibody (serum antibodies); experiment: MAP antigen-ELISA of Z300 peptide (Example 6(4)); assay type: binding, human; conditions: Crohn's disease patient serum No. 2, No. 7 and No. 8
Protocol: Therefore, in order to confirm that human nuclear protein (HZF300) is a protein simulated or mimicked by CDP3 peptide, the peptide (Z300 peptide) having the amino acid sequence of the 126-138 amino acid region of HZF300 was prepared in the form of a MAP peptide and the MAP antigen ELISA was carried out using 20 Crohn's disease patient serum samples, 20 ulcerative colitis patient serum samples, and 20 healthy volunteer serum samples.
First, each human serum was diluted 101-fold with the sample diluent (described hereinbefore) and 100 μL/well of the solution was added to the MAP plate prepared by immobilizing the said MAP peptide. Then, the procedure of the secondary reaction and subsequent operation described in Example 6(2) was followed to investigate the reactivity of the MAP peptide to various kinds of serum antibodies.

[7] = target: Crohn's disease patient serum No. 2 (serum antibody); experiment: inhibition ELISA; serum pre-incubated with 100 ug/mL MAP peptide, then CDP3 MAP plate; grade of reaction-inhibiting activity
[8] = target: Crohn's disease patient serum No. 7 (serum antibody); experiment: as above

Molecule: AEGELGGIYQDLVSGDPA [CDP-4]
- Positive rate Ulcerative colitis patients [1]: 5% (1/20)
- reaction with ulcerative colitis patient sera or healthy volunteer sera [1]: did not appreciably react
- Positive rate Healthy volunteers [1]: 4.2% (2/48)

Molecule: AEGELGLLAQQMDYADP [CDP-1a]
- ELISA reactivity to serum samples [2]: ELISA reactivities mutually alike

Molecule: AEGEL RLVGQQVMQ GDPA [CD-5]
- specificity to Crohn's disease patient serum (phage ELISA reactivity) [3]: high specificity to Crohn's disease patient serum

Molecule: AEGEL RQSDGQYQM GDPA [CD-3]
- specificity to Crohn's disease patient serum (phage ELISA reactivity) [3]: high specificity to Crohn's disease patient serum

Molecule: AEGELRQSDGQYQMGDPA [CDP-3]
- Positive rate Ulcerative colitis patients [1]: 0% (0/20)
- reaction with ulcerative colitis patient sera or healthy volunteer sera [1]: did not appreciably react
- Positive rate Healthy volunteers [1]: 0% (0/48)

Molecule: AEGEL GLLAQQMDY ADPA [CD-1]
- specificity to Crohn's disease patient serum (phage ELISA reactivity) [3]: high specificity to Crohn's disease patient serum

Molecule: AEGELYRWLPPSSAGDPA [CDP-2]
- Positive rate Ulcerative colitis patients [1]: 5% (1/20)
- reaction with ulcerative colitis patient sera or healthy volunteer sera [1]: did not appreciably react
- Positive rate Healthy volunteers [1]: 2.1% (1/48)

Molecule: AEGELGLLAQQMDYADPA [CDP-1]
- Positive rate Ulcerative colitis patients [1]: 0% (0/20)
- reaction with ulcerative colitis patient sera or healthy volunteer sera [1]: did not appreciably react
- Positive rate Healthy volunteers [1]: 4.2% (2/48)

Molecule: CDP4: equivalent of CD4 peptide, SEQ ID NO:34 (AEGELGGIYQDLVS; Phage Library)
- reactions with ulcerative colitis patient sera and healthy volunteer sera ([4]; 20 ulcerative colitis, 20 healthy volunteer serum samples): did not show definite reactions
- reactivity of Crohn's disease patient sera to the peptide ([4]; Crohn's disease patient serum Nos. 3, 6, 15, 17 and 20): strong reactivity

Molecule: A E G A L R Q S D G Q Y Q M (AEGALRQSDGQYQM) [CDP3-4]
- reaction-inhibiting activity, Patient serum sample No. 2 [5]: +++ (+++: reaction-inhibiting activity = 70%)
- reaction-inhibiting activity, Patient serum sample No. 7 [5]: +++ (+++: reaction-inhibiting activity = 70%)
- reaction-inhibiting activity, Patient serum sample No. 8 [5]: +++ (+++: reaction-inhibiting activity = 70%)

Molecule: A E G E L R Q S D G Q Y Q M (AEGELRQSDGQYQM) [CDP3]
- reactivity of Crohn's disease patient sera to the peptide [6]: strong reactivity
- reaction-inhibiting activity, Patient serum sample No. 2 [5]: +++ (+++: reaction-inhibiting activity = 70%)
- reaction-inhibiting activity, Patient serum sample No. 7 [5]: +++ (+++: reaction-inhibiting activity = 70%)
- reaction-inhibiting activity, Patient serum sample No. 8 [5]: +++ (+++: reaction-inhibiting activity = 70%)

Molecule: AEGELRLVGQQVMQGDP [CDP-5a]
- ELISA reactivity to serum samples [2]: ELISA reactivities mutually alike

Molecule: A E G E L R Q S D G Q Y A M (AEGELRQSDGQYAM) [CDP3-13]
- reaction-inhibiting activity, Patient serum sample No. 2 [5]: + (+: reaction-inhibiting activity between 30% and 50%)
- reaction-inhibiting activity, Patient serum sample No. 7 [5]: +++ (+++: reaction-inhibiting activity = 70%)
- reaction-inhibiting activity, Patient serum sample No. 8 [5]: ++ (++: reaction-inhibiting activity between 50% and 70%)

Molecule: AEGEL YRWLPPSSA GDPA [CD-2]
- specificity to Crohn's disease patient serum (phage ELISA reactivity) [3]: high specificity to Crohn's disease patient serum

Molecule: AEGELRQSDAQYQM (also: MAP: 8 copies as branches on a lysine core) [MAP peptide of CDP3-10]
- reaction-inhibiting activity [7]: 30 to 50%

Molecule: AEGELRQSAGQYQM (also: MAP: 8 copies as branches on a lysine core) [MAP peptide of CDP3-9]
- reaction-inhibiting activity [8]: 30 to 50%

Molecule: AEGELRQSDGAYQM (also: MAP: 8 copies as branches on a lysine core) [MAP peptide of CDP3-11]
- reaction-inhibiting activity [8]: 30 to 50%
